From PubChem BioAssay (NCI)
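Tested at 5 concentrations; 48 h exposure; 96-well plates; endpoints linearly interpolated, else capped at highest concentration. The concentration for 50% growth inhibition is given as GI50. Definition used: TGI = concentration required for complete inhibition of growth.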

Legend:
Assay in all cases: inhibition of tumour cell growth, NCI panel, 48 h
[1] = test system: OVCAR-3 ovarian
[2] = test system: RXF 393 renal
[3] = test system: SK-OV-3 ovarian
[4] = test system: UACC-62 melanoma
[5] = test system: NCI-H460 lung
[6] = test system: RPMI-8226 leukemia
[7] = test system: 786-0 renal
[8] = test system: NCI-H23 lung
[9] = test system: UO-31 renal
[10] = test system: SF-295 CNS
[11] = test system: K-562 leukemia
[12] = test system: CAKI-1 renal
[13] = test system: LOX IMVI melanoma
[14] = test system: SNB-19 CNS
[15] = test system: MDA-MB-435
[16] = test system: SW-620 colon
[17] = test system: HOP-62 NSCLC
[18] = test system: SR leukemia
[19] = test system: OVCAR-8 ovarian
[20] = test system: HS 578T breast
[21] = test system: HCT-116 colon
[22] = test system: HL-60(TB) leukemia
[23] = test system: MDA-MB-231 breast
[24] = test system: NCI-H226 lung
[25] = test system: OVCAR-5 ovarian
[26] = test system: SF-268 CNS
[27] = test system: T-47D breast
[28] = test system: TK-10 renal
[29] = test system: U251 CNS
[30] = test system: SK-MEL-2 melanoma
[31] = test system: PC-3 prostate
[32] = test system: HCC-2998 colon
[33] = test system: HCT-15 colon
[34] = test system: A549 NSCLC
[35] = test system: KM12 colon
[36] = test system: MCF7 breast
[37] = test system: NCI-H522 lung
[38] = test system: OVCAR-4 ovarian
[39] = test system: HT29 colon
[40] = test system: COLO 205 colon
[41] = test system: CCRF-CEM leukemia
[42] = test system: DU-145 prostate
[43] = test system: MALME-3M melanoma
[44] = test system: HOP-92 NSCLC
[45] = test system: SN12C renal
[46] = test system: SF-539 CNS
[47] = test system: BT-549 breast
[48] = test system: MOLT-4 leukemia
[49] = test system: SK-MEL-28 melanoma
[50] = test system: IGROV1 ovarian
[51] = test system: NCI/ADR-RES ovarian
[52] = test system: EKVX NSCLC
[53] = test system: UACC-257 melanoma
[54] = test system: M14 melanoma
[55] = test system: A498 renal
[56] = test system: SK-MEL-5 melanoma
[57] = test system: SNB-75 CNS
[58] = test system: ACHN renal

In the case of `Cc1c(C(=O)/C=C/c2ccc(Cl)cc2)nnn1-c1ccnc2c(C(F)(F)F)cccc12`, the GI50 [1] is reported as 36.6 µM, the TGI [1] is reported as > 100 µM and the GI50 [2] is reported as 1.05 µM. For the same compound, the TGI [2] was 34.1 µM, the GI50 [3] was 42.1 µM and the TGI [3] was 92.9 µM. For the same compound, the GI50 [4] was 26.5 µM, the TGI [4] was > 100 µM and the GI50 [5] was 48.9 µM. The TGI [5] was > 100 µM, the GI50 [6] was 8.47 µM and the TGI [6] was > 100 µM. The GI50 [7] was 45.6 µM, the TGI [7] was > 100 µM and the GI50 [8] was 35.8 µM. For the same compound, the TGI [8] was > 100 µM, the GI50 [9] was 33.5 µM and the TGI [9] was > 100 µM. The GI50 [10] was 26.9 µM, the TGI [10] was > 100 µM and the GI50 [11] was 8.67 µM. For the same compound, the TGI [11] was > 100 µM, the GI50 [12] was 53.7 µM and the TGI [12] was > 100 µM. The GI50 [13] was 23.3 µM, the TGI [13] was > 100 µM and the GI50 [14] was 33.9 µM. The TGI [14] was > 100 µM, the GI50 [15] was > 100 µM and the TGI [15] was > 100 µM. For the same compound, the GI50 [16] was > 100 µM, the TGI [16] was > 100 µM and the GI50 [17] was 22 µM. For the same compound, the TGI [17] was 47.8 µM, the GI50 [18] was 8.71 µM and the TGI [18] was 55.2 µM. The GI50 [19] was 42.7 µM, the TGI [19] was > 100 µM and the GI50 [20] was 64.3 µM. For the same compound, the TGI [20] was > 100 µM, the GI50 [21] was 25.6 µM and the TGI [21] was > 100 µM. The GI50 [22] was 25.9 µM, the TGI [22] was > 100 µM and the GI50 [23] was 17.2 µM. The TGI [23] was 72.7 µM, the GI50 [24] was 22.6 µM and the TGI [24] was > 100 µM. The GI50 [25] was > 100 µM, the TGI [25] was > 100 µM and the GI50 [26] was 21.5 µM. The TGI [26] was > 100 µM, the GI50 [27] was > 100 µM and the TGI [27] was > 100 µM. For the same compound, the GI50 [28] was 34.9 µM, the TGI [28] was > 100 µM and the GI50 [29] was 12.9 µM. For the same compound, the TGI [29] was 47.8 µM, the GI50 [30] was > 100 µM and the TGI [30] was > 100 µM. For the same compound, the GI50 [31] was 26.1 µM, the TGI [31] was > 100 µM and the GI50 [32] was 72.8 µM. The TGI [32] was > 100 µM, the GI50 [33] was 54.6 µM and the TGI [33] was > 100 µM. The GI50 [34] was 23.7 µM, the TGI [34] was > 100 µM and the GI50 [35] was 77.1 µM. For the same compound, the TGI [35] was > 100 µM, the GI50 [36] was 70.7 µM and the TGI [36] was > 100 µM. For the same compound, the GI50 [37] was 27.6 µM, the TGI [37] was > 100 µM and the GI50 [38] was 0.151 µM. For the same compound, the TGI [38] was 0.966 µM, the GI50 [39] was 8.24 µM and the TGI [39] was > 100 µM. For the same compound, the GI50 [40] was > 100 µM, the TGI [40] was > 100 µM and the GI50 [41] was 15.3 µM. The TGI [41] was > 100 µM, the GI50 [42] was > 100 µM and the TGI [42] was > 100 µM. For the same compound, the GI50 [43] was 26.8 µM, the TGI [43] was > 100 µM and the GI50 [44] was 18.4 µM. For the same compound, the TGI [44] was 60.6 µM, the GI50 [45] was 16.3 µM and the TGI [45] was > 100 µM. The GI50 [46] was 51.9 µM, the TGI [46] was > 100 µM and the GI50 [47] was > 100 µM. The TGI [47] was > 100 µM, the GI50 [48] was 19.3 µM and the TGI [48] was 68.3 µM. The GI50 [49] was > 100 µM, the TGI [49] was > 100 µM and the GI50 [50] was 97.3 µM. The TGI [50] was > 100 µM, the GI50 [51] was 48.4 µM and the TGI [51] was > 100 µM. The GI50 [52] was 76.5 µM, the TGI [52] was > 100 µM and the GI50 [53] was 30.2 µM. The TGI [53] was > 100 µM, the GI50 [54] was > 100 µM and the TGI [54] was > 100 µM. The GI50 [55] was > 100 µM, the TGI [55] was > 100 µM and the GI50 [56] was 53.5 µM. For the same compound, the TGI [56] was > 100 µM, the GI50 [57] was 15.9 µM and the TGI [57] was 36.5 µM. The GI50 [58] was 51.6 µM and the TGI [58] was > 100 µM.
For `O=[N+]([O-])c1ccc(C2NC(=S)NC3c4cc([N+](=O)[O-])ccc4CCCC23)cc1` (centres undefined), the TGI [1] was > 100 µM, the TGI [2] was 45.2 µM and the TGI [3] was > 100 µM. The TGI [4] was > 100 µM, the TGI [5] was > 100 µM and the TGI [6] was > 100 µM. The TGI [7] was > 100 µM, the TGI [8] was > 100 µM and the TGI [9] was > 100 µM. For the same compound, the TGI [10] was > 100 µM, the TGI [11] was > 100 µM and the TGI [12] was > 100 µM. For the same compound, the TGI [13] was > 100 µM, the TGI [14] was > 100 µM and the TGI [15] was > 100 µM. For the same compound, the TGI [16] was > 100 µM, the TGI [17] was > 100 µM and the TGI [18] was > 100 µM. For the same compound, the TGI [19] was > 100 µM, the TGI [20] was > 100 µM and the TGI [21] was > 100 µM. For the same compound, the TGI [22] was > 100 µM, the TGI [23] was > 100 µM and the TGI [24] was > 100 µM. For the same compound, the TGI [25] was > 100 µM, the TGI [26] was > 100 µM and the TGI [27] was > 100 µM. For the same compound, the TGI [28] was > 100 µM, the TGI [29] was > 100 µM and the TGI [30] was > 100 µM. For the same compound, the TGI [31] was > 100 µM, the TGI [32] was > 100 µM and the TGI [33] was > 100 µM. For the same compound, the TGI [34] was > 100 µM, the TGI [35] was > 100 µM and the TGI [36] was > 100 µM. The TGI [37] was > 100 µM, the TGI [38] was > 100 µM and the TGI [39] was > 100 µM. The TGI [40] was > 100 µM, the TGI [41] was > 100 µM and the TGI [42] was > 100 µM. The TGI [43] was > 100 µM, the TGI [44] was 45.5 µM and the TGI [45] was > 100 µM. For the same compound, the TGI [46] was > 100 µM, the TGI [47] was > 100 µM and the TGI [48] was > 100 µM. The TGI [49] was > 100 µM, the TGI [50] was > 100 µM and the TGI [51] was > 100 µM. For the same compound, the TGI [52] was > 100 µM, the TGI [53] was > 100 µM and the TGI [54] was > 100 µM. The TGI [55] was > 100 µM, the TGI [56] was > 100 µM and the TGI [57] was 44.2 µM. The TGI [58] was > 100 µM.
